US20240294489A1 (Captor Therapeutics S.A., priority 2020, published 2024)
Read-outs that look alike come from different tables or passages of the source. Each block holds one compound with its values, some of them ahead of it.

How the values were obtained:
Type in all cases: cell-based
Ikaros (IKZF1) = biological target: T1, Ikaros (IKZF1) (Homo sapiens, UniProt Q13422+Q96SW2); assay: Ikaros degradation assay, H929 cell line; conditions: NCI-H929, H929 cells, 10 uM, 24 h, read-out: % of IKZF1 protein reduction
T1 construct: Ikaros degradation in the H929 cell line was investigated; endogenous in cells; host or cells: H929
T1 sequence (Q13422 whole entry): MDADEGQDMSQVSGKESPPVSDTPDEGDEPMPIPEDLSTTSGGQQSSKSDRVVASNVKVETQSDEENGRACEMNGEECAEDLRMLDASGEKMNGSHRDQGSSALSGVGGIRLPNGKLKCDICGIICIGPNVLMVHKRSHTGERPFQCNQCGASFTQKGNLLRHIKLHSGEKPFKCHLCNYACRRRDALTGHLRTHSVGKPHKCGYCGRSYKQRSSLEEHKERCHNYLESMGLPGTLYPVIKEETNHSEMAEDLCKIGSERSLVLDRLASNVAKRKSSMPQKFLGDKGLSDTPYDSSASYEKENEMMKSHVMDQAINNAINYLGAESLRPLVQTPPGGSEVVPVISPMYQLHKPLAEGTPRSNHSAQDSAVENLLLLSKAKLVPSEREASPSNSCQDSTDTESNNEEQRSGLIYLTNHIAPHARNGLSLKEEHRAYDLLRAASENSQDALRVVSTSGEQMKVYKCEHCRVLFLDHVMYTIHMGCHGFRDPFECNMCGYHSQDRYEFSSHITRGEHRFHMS
T1 sequence (Q96SW2 whole entry): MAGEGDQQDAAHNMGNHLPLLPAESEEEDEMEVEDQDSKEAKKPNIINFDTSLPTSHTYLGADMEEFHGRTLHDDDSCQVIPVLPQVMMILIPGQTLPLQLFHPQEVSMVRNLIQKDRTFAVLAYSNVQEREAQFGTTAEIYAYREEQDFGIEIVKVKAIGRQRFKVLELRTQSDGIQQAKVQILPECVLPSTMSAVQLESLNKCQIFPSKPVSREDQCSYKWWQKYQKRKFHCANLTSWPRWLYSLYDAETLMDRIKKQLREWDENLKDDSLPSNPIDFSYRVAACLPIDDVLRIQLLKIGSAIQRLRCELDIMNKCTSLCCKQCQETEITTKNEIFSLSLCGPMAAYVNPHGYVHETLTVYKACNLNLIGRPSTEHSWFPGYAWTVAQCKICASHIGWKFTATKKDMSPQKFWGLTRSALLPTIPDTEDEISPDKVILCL
T1 sequence (Q16531 whole entry partner): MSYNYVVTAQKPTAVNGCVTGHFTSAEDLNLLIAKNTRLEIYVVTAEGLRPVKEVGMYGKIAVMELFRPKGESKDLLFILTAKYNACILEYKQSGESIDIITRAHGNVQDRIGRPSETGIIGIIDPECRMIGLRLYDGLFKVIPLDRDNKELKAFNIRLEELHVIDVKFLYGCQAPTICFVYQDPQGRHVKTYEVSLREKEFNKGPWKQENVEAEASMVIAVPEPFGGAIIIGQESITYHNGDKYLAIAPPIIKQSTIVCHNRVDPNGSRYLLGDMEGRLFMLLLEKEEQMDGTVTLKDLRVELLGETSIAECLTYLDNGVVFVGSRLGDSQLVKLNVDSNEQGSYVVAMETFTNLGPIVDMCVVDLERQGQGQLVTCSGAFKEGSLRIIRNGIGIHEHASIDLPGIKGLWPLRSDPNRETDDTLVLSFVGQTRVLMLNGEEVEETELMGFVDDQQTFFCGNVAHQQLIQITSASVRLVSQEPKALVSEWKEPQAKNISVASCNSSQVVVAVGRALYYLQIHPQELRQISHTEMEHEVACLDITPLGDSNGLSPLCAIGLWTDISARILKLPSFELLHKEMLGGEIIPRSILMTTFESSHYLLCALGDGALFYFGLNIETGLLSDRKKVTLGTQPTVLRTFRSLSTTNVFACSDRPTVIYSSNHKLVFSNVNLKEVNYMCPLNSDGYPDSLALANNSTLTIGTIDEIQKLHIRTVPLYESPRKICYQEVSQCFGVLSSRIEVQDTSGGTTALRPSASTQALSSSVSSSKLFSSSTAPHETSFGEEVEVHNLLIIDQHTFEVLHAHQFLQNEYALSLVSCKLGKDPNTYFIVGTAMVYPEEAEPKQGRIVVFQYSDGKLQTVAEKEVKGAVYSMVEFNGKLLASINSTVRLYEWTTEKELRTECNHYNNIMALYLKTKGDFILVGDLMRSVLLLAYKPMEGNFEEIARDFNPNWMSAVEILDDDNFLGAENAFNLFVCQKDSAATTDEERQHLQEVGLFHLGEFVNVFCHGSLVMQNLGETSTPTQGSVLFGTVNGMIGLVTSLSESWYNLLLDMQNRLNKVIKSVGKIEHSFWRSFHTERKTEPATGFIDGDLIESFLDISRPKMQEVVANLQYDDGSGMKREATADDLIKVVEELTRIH
Protocol: (§1) Cells were seeded on 6- or 12-well plates, and the compounds to be tested were added at the desired concentration range. […] After 24 h incubation (37° C., 5% CO2), cells were harvested, washed and cell lysates were prepared using RIPA lysis buffer. The amount of protein was determined via BCA assay, and the appropriate quantity was then loaded on the precast gel for the protein separation. After primary and secondary Ab staining, the membranes were washed and signals developed. The densitometry analysis was implemented to obtain the numeric values used later in the protein level evaluation process.

H929 cells = assay: Cell viability CTG assay, H929; parameters: key to Geomean absolute IC50 by molecule, 72 H: Inactive represents IC50 > 50 μM; C represents 50 μM ≥ IC50 > 5 μM; conditions: H929, 72 h, 0.001-50 μM; for IC50: Homo sapiens, NCI-H929, numeric values, read-out: Geomean absolute IC50 by molecule, 72 H
Protocol: (§2) The effect of various compounds of the invention and various reference compounds on cell viability in various cell lines was investigated, using the Cell Viability—CTG Assay Protocol below. Hep3B, Kelly, H929, KG-1 and SNU-398 cells were maintained in respective cell medium (see Table 8, below). The cells were seeded on the 96-well or 384-white plates, and the compounds to be tested were added at the desired concentration range. Compounds are diluted in DMSO, and the DMSO concentration is kept constant at 0.25% v/v across the assay plate. After 72 h incubation (37° C., 5% CO2), CellTiter-Glo® Reagent (Promega/G7570) was added to the wells. Plates are shaken for 4 minutes and incubated for 8 minutes in the dark prior to reading luminescence (LU) by using the CLARIOstar Multimode Plate Reader. The signal is proportional to the amount of ATP, which is directly proportional to the number of cells present in the culture.
(§3) Luminescence (RLU) values were normalized to DMSO control. Dose response is assessed by non-linear regression and IC50 calculation with the average of technical duplicate of percentage inhibition. IC50 values are reported as absolute IC50 values, being the concentration of test compound at the intersection of the concentration-response curves with T/C=50%. For calculation of mean IC50 values the geometric mean is used.

SNU-398 cells = assay: Cell viability CTG assay, SNU-398; conditions: Homo sapiens; SNU-398, 72 h, 0.001-50 μM, FIG. 6C
Protocol: as §2, §3

EOL-1 = assay: Cell viability, additional cell lines (CellTiter-Glo), EOL-1; conditions: Homo sapiens, EOL1; EOL-1, 72 h; read-out: Absolute IC50
Protocol: (§4) Tumor cells are grown at 37° C. in a humidified atmosphere with 5% CO2 in RPMI 1640 medium, supplemented with 10% (v/v) fetal calf serum and 50 μg/ml gentamicin for up to 20 passages, and are passaged once or twice weekly.
(§5) Cells are harvested from exponential phase cultures, counted and plated in 96 well flat-bottom microtiter plates at a cell density depending on the cell line's growth rate (4,000-20,000 cells/well depending on the cell line's growth rate, up to 60,000 for hematological cancer cell lines) in RPMI 1640 medium supplemented with 10% (v/v) fetal calf serum and 50 μg/ml gentamicin (140 μl/well). Cultures are incubated at 37° C. and 5% CO2 in a humidified atmosphere. After 24 h, 10 μl of test compounds or control medium are added and left on the cells for another 72 h. Compounds are serially diluted in DMSO, transferred in cell culture medium, and added to the assay plates by using a Tecan Freedom EVO 200 robotic platform. The DMSO concentration is kept constant at 0.3% v/v across the assay plate. Viability of cells is quantified by the CellTiter-Glo® cell viability assay (Promega G8462). After incubation of cells, 100 μl of CellTiter-Glo® One Solution Assay reagent are added to each well. Plates are shaken for 2 minutes to induce cell lysis and incubated for 20 minutes prior to reading luminescence (LU) by using the EnVision® Xcite multilabel plate reader (Perkin Elmer). […]

HL-60 = assay: Cell viability, additional cell lines (CellTiter-Glo), HL-60; conditions: Homo sapiens, HL-60, 72 h; read-out: Absolute IC50
Protocol: as §4, §5

Kasumi-1 = assay: Cell viability, additional cell lines (CellTiter-Glo), Kasumi-1; conditions: Homo sapiens; Kasumi-1, 72 h; read-out: Absolute IC50
Protocol: as §4, §5

NOMO-1 = assay: Cell viability, additional cell lines (CellTiter-Glo), NOMO-1; conditions: Homo sapiens, NOMO-1, 72 h; read-out: Absolute IC50
Protocol: as §4, §5

OCI-AML2 = assay: Cell viability, additional cell lines (CellTiter-Glo), OCI-AML2; conditions: Homo sapiens, OCI-AML2, 72 h; read-out: Absolute IC50
Protocol: as §4, §5

PL-21 = assay: Cell viability, additional cell lines (CellTiter-Glo), PL-21; conditions: PL-21, 72 h; read-out: Absolute IC50
Protocol: as §4, §5

SU-DHL-1 = assay: Cell viability, additional cell lines (CellTiter-Glo), SU-DHL-1; conditions: Homo sapiens, SU-DHL-1, 72 h; read-out: Absolute IC50
Protocol: as §4, §5

TMD8 = assay: Cell viability, additional cell lines (CellTiter-Glo), TMD8; conditions: Homo sapiens, TMD8, 72 h; read-out: Absolute IC50
Protocol: as §4, §5

U-937 = assay: Cell viability, additional cell lines (CellTiter-Glo), U-937; conditions: Homo sapiens, U-937, 72 h; read-out: Absolute IC50
Protocol: as §4, §5

IM-9 = assay: Cell viability, additional cell lines (CellTiter-Glo), IM-9; conditions: Homo sapiens, IM-9, 72 h; read-out: Absolute IC50
Protocol: as §4, §5

LP-1 = assay: Cell viability, additional cell lines (CellTiter-Glo), LP-1; conditions: Homo sapiens, LP-1, 72 h; read-out: Absolute IC50
Protocol: as §4, §5

NCI-H929 = assay: Cell viability, additional cell lines (CellTiter-Glo), NCI-H929; conditions: Homo sapiens, NCI-H929, 72 h; read-out: Absolute IC50
Protocol: as §4, §5

OPM-2 = assay: Cell viability, additional cell lines (CellTiter-Glo), OPM-2; conditions: Homo sapiens, OPM-2, 72 h; read-out: Absolute IC50
Protocol: as §4, §5

U-266 = assay: Cell viability, additional cell lines (CellTiter-Glo), U-266; conditions: Homo sapiens, U-266, 72 h; read-out: Absolute IC50
Protocol: as §4, §5

GSPT1 = biological target: T2, GSPT1 (Homo sapiens, UniProt P15170+Q96SW2); assay: GSPT1 degradation assay, Hep3B cell line; conditions: HEP3B cells, 24 h, read-out: % of GSPT1 protein reduction
T2 construct: GSPT1 degradation in the Hep3B cell line was investigated; endogenous in cells; host or cells: Hep3B
T2 sequence (P15170 whole entry): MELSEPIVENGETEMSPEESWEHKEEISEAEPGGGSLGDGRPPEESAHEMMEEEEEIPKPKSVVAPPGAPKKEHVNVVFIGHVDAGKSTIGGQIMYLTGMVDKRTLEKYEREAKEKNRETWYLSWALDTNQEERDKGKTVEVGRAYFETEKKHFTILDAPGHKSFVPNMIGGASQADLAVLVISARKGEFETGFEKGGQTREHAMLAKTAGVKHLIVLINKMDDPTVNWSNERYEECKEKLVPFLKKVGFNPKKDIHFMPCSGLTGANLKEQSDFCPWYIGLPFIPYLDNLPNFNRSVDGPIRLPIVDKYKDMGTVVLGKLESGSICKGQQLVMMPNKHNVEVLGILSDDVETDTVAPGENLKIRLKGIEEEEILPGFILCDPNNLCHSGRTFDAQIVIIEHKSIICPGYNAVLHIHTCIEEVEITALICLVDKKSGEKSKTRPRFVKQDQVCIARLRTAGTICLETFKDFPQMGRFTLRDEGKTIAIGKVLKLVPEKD
T2 sequence (Q96SW2 whole entry): as the sequence (Q96SW2 whole entry) above
T2 sequence (Q16531 whole entry partner): as the sequence (Q16531 whole entry partner) above
Protocol: (§6) Hep3B cells were maintained in EMEM medium, supplemented with penicillin/streptomycin and 10% Fetal Bovine Serum (FBS). Cells were seeded on 6- or 12-well plates, and the compounds to be tested were added at the desired concentration range. Final DMSO concentration was 0.25%. After 24 h incubation (37° C., 5% CO2), cells were harvested, washed and cell lysates were prepared using RIPA lysis buffer. The amount of protein was determined via BCA assay, and the appropriate quantity was then loaded on the precast gel for the protein separation. After primary and secondary Ab staining, the membranes were washed and signals developed. The densitometry analysis was implemented to obtain the numeric values used later in the protein level evaluation process. Densitometry values were normalized to the loading control and calculated as [%] of the DMSO control.

KG-1 cells = assay: Cell viability CTG assay, KG-1; conditions: Homo sapiens; KG-1, 72 h, 0.001-50 μM; read-out: KG-1 Geomean absolute IC50 by molecule, 72 H
Protocol: as §2, §3

Kelly cells [1] = assay: Cell viability CTG assay, Kelly; conditions: 72 h, 0.001-50 μM, read-out: Kelly Geomean absolute IC50 by molecule, 72 H
Protocol: as §2, §3

Hep3B cells [2] = assay: Cell viability CTG assay, Hep3B; conditions: Homo sapiens, 72 h, 0.001-50 μM, read-out: Hep3B Geomean absolute IC50 by molecule, 72 H
Protocol: as §2, §3

SALL4 [3] = biological target: T3, SALL4 (Homo sapiens, UniProt Q96SW2+Q9UJQ4); assay: SALL4 degradation assay, Kelly cell line (Western blot densitometry); conditions: Kelly cells, 100 nM, 24 h, average from n ≥ 2 experiments
T3 construct: SALL4 degradation in the Kelly cell line was investigated; endogenous in cells; host or cells: Kelly
T3 sequence (Q9UJQ4 whole entry): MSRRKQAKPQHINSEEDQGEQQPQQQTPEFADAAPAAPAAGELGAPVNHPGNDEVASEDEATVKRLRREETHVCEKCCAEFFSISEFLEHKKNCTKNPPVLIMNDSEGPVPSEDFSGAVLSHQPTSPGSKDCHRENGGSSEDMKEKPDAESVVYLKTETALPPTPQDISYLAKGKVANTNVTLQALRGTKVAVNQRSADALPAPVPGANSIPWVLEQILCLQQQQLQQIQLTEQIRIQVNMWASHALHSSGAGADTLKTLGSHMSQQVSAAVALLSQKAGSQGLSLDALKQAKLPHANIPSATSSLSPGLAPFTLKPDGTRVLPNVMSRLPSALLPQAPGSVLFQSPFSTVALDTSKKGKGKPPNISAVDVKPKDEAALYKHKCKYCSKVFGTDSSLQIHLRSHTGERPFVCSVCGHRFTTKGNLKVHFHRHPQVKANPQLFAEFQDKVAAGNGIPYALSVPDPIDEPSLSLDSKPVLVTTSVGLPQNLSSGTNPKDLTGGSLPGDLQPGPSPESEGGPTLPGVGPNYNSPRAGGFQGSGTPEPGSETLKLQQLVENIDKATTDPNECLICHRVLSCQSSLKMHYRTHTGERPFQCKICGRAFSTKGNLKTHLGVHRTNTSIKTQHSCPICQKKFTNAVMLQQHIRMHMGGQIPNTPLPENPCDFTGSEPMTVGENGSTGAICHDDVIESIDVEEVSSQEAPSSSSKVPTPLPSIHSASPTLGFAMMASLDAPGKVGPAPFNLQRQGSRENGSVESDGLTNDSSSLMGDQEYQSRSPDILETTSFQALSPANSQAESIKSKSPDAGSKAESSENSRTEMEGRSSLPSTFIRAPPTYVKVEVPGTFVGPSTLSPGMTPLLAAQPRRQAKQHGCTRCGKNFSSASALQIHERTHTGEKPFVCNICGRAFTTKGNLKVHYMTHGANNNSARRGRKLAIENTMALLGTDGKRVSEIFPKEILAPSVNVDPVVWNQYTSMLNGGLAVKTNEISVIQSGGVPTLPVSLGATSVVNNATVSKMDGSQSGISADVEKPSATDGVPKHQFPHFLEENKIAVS
T3 sequence (Q96SW2 whole entry): as the sequence (Q96SW2 whole entry) above
T3 sequence (Q16531 whole entry partner): as the sequence (Q16531 whole entry partner) above
Protocol: as §1

SALL4 [4] = biological target: T3, SALL4; assay: SALL4 degradation in the Kelly cell line, time course; conditions: Kelly cells, 0.1 μM, 3, 6, 12, 24, 48 and 72 h, FIG. 2
Protocol: as §6, with “Kelly” for “Hep3B”, “RPMI-1640” for “EMEM”, “After” for “After 24 h”, “CO2) for a specified period of time,” for “CO2),”, “process.” for “process. Densitometry values were normalized to the loading control and calculated as [%] of the DMSO control.”

Kelly cells [5] = assay: Cell survival clonogenic assay, Kelly; conditions: 0.1-10 μM, crystal violet staining after 9-10 days
Protocol: (§7) To determine the ability of a single cell to form a colony (defined as a cluster of at least 50 cells), Kelly and Hep3B cells were maintained in RPM11640 (Kelly) or EMEM (Hep3B) medium, supplemented with penicillin/streptomycin and 10% FBS. The cells were counted and seeded on the 6-well plates, at the density of 1×10^3 cells per well, the compounds to be tested were added at the desired concentration range, and the cells were cultured at 37° C./5% CO2. After colony formation (9-10 days), the cells were washed and treated with 6.0% glutaraldehyde and 0.5% crystal violet mix for 30 min., followed by rinsing with water and drying at room temperature (RT).

Hep3B cells [6] = assay: Cell survival clonogenic assay, Hep3B; conditions: 0.1-10 μM, crystal violet staining after 9-10 days
Protocol: as §7

Structure (SMILES): O=C1CCC(N2Cc3cc(CNC(=O)C(F)(F)c4ccc(Cl)cc4)ccc3C2=O)C(=O)N1 (stereo not shown) [CC-90009, reference compound]
inhibition at 10 µM (Ikaros (IKZF1); numeric values): 33% | IC50 (H929 cells): 0.189 µM | IC50 (SNU-398 cells): > 9.9 µM | IC50 (EOL-1): 0.002 µM | IC50 (HL-60): 0.003 µM | IC50 (Kasumi-1): 0.035 µM | IC50 (NOMO-1): 0.04 µM | IC50 (OCI-AML2): 0.018 µM | IC50 (PL-21): 0.01 µM | IC50 (SU-DHL-1): 0.153 µM | IC50 (TMD8): 0.264 µM | IC50 (U-937): 0.078 µM | IC50 (IM-9): 0.085 µM | IC50 (LP-1): 0.028 µM | IC50 (NCI-H929): 0.399 µM | IC50 (OPM-2): 0.074 µM | IC50 (U-266): 0.056 µM

inhibition at 10 µM (GSPT1; 10 uM): 80 to 100% | inhibition at 10 µM (Ikaros (IKZF1)): 0 to 24% | IC50 (Hep3B cells [2]): ≤ 0.1 µM | Geomean absolute IC50 by molecule, 72 H (H929 cells): Inactive | IC50 (SNU-398 cells): 0.082 µM
Structure (SMILES): NCc1cc2c(cc1F)C(=O)N(C1CCC(=O)NC1=O)C2 (stereo not shown) [Compound 3, 3-[5-(aminomethyl)-6-fluoro-1-oxo-2,3-dihydro-1H-isoindol-2-yl]piperidine-2,6-dione]
IC50 (KG-1 cells): ≤ 0.1 µM | IC50 (Kelly cells [1]): ≤ 0.1 µM

% of SALL4 protein reduction (SALL4 [3]): >80% | inhibition at 1 µM (GSPT1; 1 uM): 50 to 79% | inhibition at 10 µM (Ikaros (IKZF1)): 0 to 24%
Structure (SMILES): Nc1c(O)ccc2c1C(=O)N(C1CCC(=O)NC1=O)C2=O (stereo not shown) [Compound 44, 4-amino-2-(2,6-dioxopiperidin-3-yl)-5-hydroxyisoindoline-1,3-dione]
SALL4 degradation time course (SALL4 [4]): more rapidly and effectively than lenalidomide

Structure (SMILES): Nc1cccc2c1CN(C1CCC(=O)NC1=O)C2=O (stereo not shown) [Lenalidomide, lenalidomide, reference compound]
IC50 (H929 cells): 0.433 µM | survival of the cells (colony formation) (Kelly cells [5]): no activity | survival of the cells (colony formation) (Hep3B cells [6]): no activity
